Calls of active or inactive are those of the source. The calls are words filed in the database; no cut-off is given here.
Assays:
[1] = biological target: T1, Nuclear factor erythroid 2-related factor 2 (Homo sapiens) (UniProt Q16236); test: Activation of Nrf2 in human HSC3-ARE9 cells assessed as increase of ARE-mediated luciferase expression at 50 uM after 24 hrs in presence of MEK inhibitor U0126; type: cell-based
T1 sequence (whole entry): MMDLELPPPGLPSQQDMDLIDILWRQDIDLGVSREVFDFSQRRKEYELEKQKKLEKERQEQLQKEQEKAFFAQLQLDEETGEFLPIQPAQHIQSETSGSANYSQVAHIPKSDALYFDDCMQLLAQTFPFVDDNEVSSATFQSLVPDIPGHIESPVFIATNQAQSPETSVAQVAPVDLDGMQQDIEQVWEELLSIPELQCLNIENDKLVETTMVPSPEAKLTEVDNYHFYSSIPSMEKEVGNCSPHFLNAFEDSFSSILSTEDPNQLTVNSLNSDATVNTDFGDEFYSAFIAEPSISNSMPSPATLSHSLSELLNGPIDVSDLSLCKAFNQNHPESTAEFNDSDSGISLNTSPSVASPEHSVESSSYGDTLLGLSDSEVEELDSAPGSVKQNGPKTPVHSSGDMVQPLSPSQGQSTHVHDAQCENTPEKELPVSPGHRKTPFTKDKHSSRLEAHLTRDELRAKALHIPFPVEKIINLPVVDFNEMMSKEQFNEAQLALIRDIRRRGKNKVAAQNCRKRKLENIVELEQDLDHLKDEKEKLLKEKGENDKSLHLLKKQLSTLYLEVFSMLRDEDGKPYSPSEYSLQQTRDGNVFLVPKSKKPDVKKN

[2] = biological target: T1, Nuclear factor erythroid 2-related factor 2 (Homo sapiens); test: Activation of Nrf2 in human HSC3-ARE9 cells assessed as increase of ARE-mediated GR mRNA expression at 50 uM after 24 hrs by RT-PCR analysis relative to control; type: cell-based
[3] = biological target: T1, Nuclear factor erythroid 2-related factor 2 (Homo sapiens); test: Activation of Nrf2 in human HSC3-ARE9 cells assessed as increase of ARE-mediated luciferase expression at 50 uM after 24 hrs in presence of PI3K inhibitor LY294002; type: cell-based
[4] = biological target: T1, Nuclear factor erythroid 2-related factor 2 (Homo sapiens); test: Activation of Nrf2 in human HSC3-ARE9 cells assessed as increase of ARE-mediated AKR1C2 mRNA expression at 50 uM after 24 hrs by RT-PCR analysis relative to control; type: cell-based
Mus musculus [5] = test: Toxicity in C57BL/6J mouse assessed as change in body weight at 50 mg/kg, po qd for 7 days; type: organism-based; conditions: in vivo, 168 h
[6] = biological target: T1, Nuclear factor erythroid 2-related factor 2 (Homo sapiens); test: Activation of Nrf2 in human HSC3-ARE9 cells assessed as increase of protein level in nucleus after 24 hrs by Western blot analysis; type: cell-based
[7] = biological target: T1, Nuclear factor erythroid 2-related factor 2 (Homo sapiens); test: Increase of Nrf2 phosphorylation at ser-40 in human HSC3 cells at 50 uM after 24 hrs by Western blot analysis relative to control; type: cell-based; conditions: HSC-3
Mus musculus [8] = test: Induction of Nrf2-mediated cytoprotective activity in C57BL/6J mouse assessed as increase of AKR1C1 level in liver at 50 mg/kg, po qd for 7 days measured after 24 hrs of last dose; type: functional, organism-based
[9] = biological target: T1, Nuclear factor erythroid 2-related factor 2 (Homo sapiens); test: Activation of Nrf2 in human HSC3-ARE9 cells assessed as increase of ARE-mediated luciferase expression at 50 uM after 24 hrs in presence of PKC inhibitor Ro-31-8220; type: cell-based
[10] = biological target: T1, Nuclear factor erythroid 2-related factor 2 (Homo sapiens); test: Activation of Nrf2 in human HSC3-ARE9 cells assessed as increase of ARE-mediated AKR1C1 mRNA expression at 50 uM after 24 hrs by RT-PCR analysis relative to control; type: cell-based
Mus musculus [11] = test: Induction of Nrf2-mediated cytoprotective activity in C57BL/6J mouse assessed as increase of HO-1 level in liver at 50 mg/kg, po qd for 7 days measured after 24 hrs of last dose; type: functional, organism-based
[12] = biological target: T1, Nuclear factor erythroid 2-related factor 2 (Homo sapiens); test: Activation of Nrf2 in human HSC3-ARE9 cells assessed as increase of ARE-mediated luciferase expression at 50 uM after 24 hrs relative to control; type: cell-based
[13] = biological target: T1, Nuclear factor erythroid 2-related factor 2 (Homo sapiens); test: Activation of Nrf2 in human HSC3-ARE9 cells assessed as increase of ARE-mediated GCLC mRNA expression at 50 uM after 24 hrs by RT-PCR analysis relative to control; type: cell-based
Mus musculus [14] = test: Induction of Nrf2-mediated cytoprotective activity in C57BL/6J mouse assessed as increase of GR level in liver at 50 mg/kg, po qd for 7 days measured after 24 hrs of last dose; type: functional, organism-based
[15] = Cytotoxicity against human HSC3 cells after 24 hrs by MTT assay; type: cell-based; conditions: hsc-3, 24 h
[16] = biological target: T1, Nuclear factor erythroid 2-related factor 2 (Homo sapiens); test: Activation of Nrf2 in human HSC3-ARE9 cells assessed as increase of ARE-mediated Prx1 protein expression after 24 hrs by Western blot analysis; type: cell-based
[17] = biological target: T1, Nuclear factor erythroid 2-related factor 2 (Homo sapiens); test: Activation of Nrf2 in human HSC3-ARE9 cells assessed as increase of ARE-mediated GCLC protein expression after 24 hrs by Western blot analysis; type: cell-based
[18] = biological target: T1, Nuclear factor erythroid 2-related factor 2 (Homo sapiens); test: Activation of Nrf2 in human HSC3-ARE9 cells assessed as increase of ARE-mediated luciferase expression at 50 uM after 24 hrs in presence of p38 inhibitor SB203580; type: cell-based
[19] = biological target: T1, Nuclear factor erythroid 2-related factor 2 (Homo sapiens); test: Activation of Nrf2 in human HSC3-ARE9 cells assessed as increase of ARE-mediated AKR1C1 protein expression after 24 hrs by Western blot analysis; type: cell-based
[20] = biological target: T1, Nuclear factor erythroid 2-related factor 2 (Homo sapiens); test: Activation of Nrf2 in human HSC3-ARE9 cells assessed as increase of ARE-mediated ABCC3 mRNA expression at 50 uM after 24 hrs by RT-PCR analysis relative to control; type: cell-based
[21] = biological target: T1, Nuclear factor erythroid 2-related factor 2 (Homo sapiens); test: Activation of Nrf2 in human HSC3-ARE9 cells assessed as increase of ARE-mediated NQO1 mRNA expression at 50 uM after 24 hrs by RT-PCR analysis relative to control; type: cell-based
[22] = Antioxidant activity assessed as DPPH radical scavenging activity; type: physicochemical
HSC-3 = test: Inhibition of t-BOOH-induced oxidative stress in human HSC3 cells assessed as intracellular ROS level at 50 uM after 24 hrs by DCF fluorescence assay; type: functional, cell-based
[23] = biological target: T1, Nuclear factor erythroid 2-related factor 2 (Homo sapiens); test: Activation of Nrf2 in human HSC3-ARE9 cells assessed as increase of ARE-mediated AKR1C3 mRNA expression at 50 uM after 24 hrs by RT-PCR analysis relative to control; type: cell-based
[24] = biological target: T1, Nuclear factor erythroid 2-related factor 2 (Homo sapiens); test: Activation of Nrf2 in human HSC3-ARE9 cells assessed as increase of ARE-mediated luciferase expression after 24 hrs; type: cell-based
[25] = biological target: T1, Nuclear factor erythroid 2-related factor 2 (Homo sapiens); test: Activation of Nrf2 in human HSC3-ARE9 cells assessed as increase of ARE-mediated Prx1 mRNA expression at 50 uM after 24 hrs by RT-PCR analysis relative to control; type: cell-based

In the case of `O=c1oc2ccccc2cc1OC/C(=N\O)c1ccccc1`, the Activity [1] is reported as “Active”, the fold change (FC) [2] is reported as 1.3 and the Activity [3] is reported as “inactive”. The fold change (FC) [4] was 1.4, the Activity (Mus musculus [5]) was “Non-toxic” and the Activity [6] was “Dose-dependent effect”. For the same compound, the Activity [7] was 126%, the Activity (Mus musculus [8]) was “Active” and the Activity [9] was “inactive”. For the same compound, the fold change (FC) [10] was 1.5, the Activity (Mus musculus [11]) was “Active” and the fold change (FC) [12] was 3.45. For the same compound, the fold change (FC) [13] was 1.6, the Activity (Mus musculus [14]) was “Active” and the Activity [15] was “Non-toxic”. The Activity [16] was “Dose-dependent effect”, the Activity [17] was “Dose-dependent effect” and the Activity [18] was “Active”. For the same compound, the Activity [19] was “Dose-dependent effect”, the fold change (FC) [20] was 1.3 and the fold change (FC) [21] was 1.2. The EC50 [22] was over 400 µM, the inhibition (HSC-3) was “Active” and the fold change (FC) [23] was 1.3. The Activity [24] was “Dose-dependent effect” and the fold change (FC) [25] was 1.6.
